Values after ≈ are worked out from the molar mass of the structure shown. “Also recorded” adds a separate entry of the source.
Assays:
E. coli (8739) = experiment: In vitro antibacterial MIC/MBC test; assay type: cell-based; conditions: Escherichia coli, ATCC8739; E. coli ATCC No. 8739
How it was run: (§1)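 Values are the lowest concentrations inhibiting visible growth (MIC) or preventing colony formation after subculture to agar (MBC). Bacteria at ~1×10^5 cells/ml were incubated with two-fold compound dilutions in MHB, or BHI+1% NHS for streptococci, at 37° C. for 18-20 hours.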

E. coli 198 = experiment: In vitro antibacterial MIC/MBC test; assay type: cell-based; conditions: Escherichia coli
How it was run: as §1

E. coli 2350 = experiment: In vitro antibacterial MIC/MBC test; assay type: cell-based; conditions: Escherichia coli
How it was run: as §1

E. coli Vogel = experiment: In vitro antibacterial MIC/MBC test; assay type: cell-based; conditions: Escherichia coli
How it was run: as §1

P. aeruginosa (15442) = experiment: In vitro antibacterial MIC/MBC test; assay type: cell-based; conditions: Pseudomonas aeruginosa, ATCC15442; P. aeruginosa ATCC No. 15442
How it was run: as §1

P. aeruginosa (27853) = experiment: In vitro antibacterial MIC/MBC test; assay type: cell-based; conditions: Pseudomonas aeruginosa, ATCC27853; P. aeruginosa ATCC No. 27853
How it was run: as §1

P. aeruginosa (7700) = experiment: In vitro antibacterial MIC/MBC test; assay type: cell-based; conditions: Pseudomonas aeruginosa, ATCC7700; P. aeruginosa ATCC No. 7700
How it was run: as §1

P. aeruginosa (9027) = experiment: In vitro antibacterial MIC/MBC test; assay type: cell-based; conditions: Pseudomonas aeruginosa, ATCC9027; P. aeruginosa ATCC No. 9027
How it was run: as §1

P. aeruginosa MGH-2 = experiment: In vitro antibacterial MIC/MBC test; assay type: cell-based; conditions: Pseudomonas aeruginosa, MGH2
How it was run: as §1

[1] = system: S. pyogenes and S. pneumoniae; experiment: In vitro antibacterial activity; assay type: cell-based
Procedure: (§2) Win 52,522 and Win 35,439 were solubilized in 0.1 ml of 0.5 N NaOH/mg of compound and diluted in sterile distilled water to 160 mcg/ml. Vancomycin and methicillin were solubilized in sterile distilled water to 1250 mcg/ml of base compound. The stock solutions were sterilized by filtration through membrane filters with a 0.45 μm pore size.
(§3) The bacterial cultures listed in Table I (hereinbelow) were grown overnight at 37° C. in MHB for all cultures except the Streptococcus strains. These were grown in BHI+10% NHS. The overnight broth cultures were adjusted to an optical density of 0.10 (650 nm, B L Spectronic 20) in sterile distilled water and subsequently diluted to 6.7×10^6 cells/ml in MHB or BHI+1% NHS.
(§4) Serial two-fold dilutions of the compound solutions were prepared in MHB (or in BHI+1% NHS for tests with Streptococci) and dispensed into 96-well microtiter trays in a volume of 0.1 ml/well using a Sandy Springs (Bellco Glass Co.) dispenser. The trays were then inoculated with 0.0015 ml of a suspension containing 6.7×10^6 cells/ml of the appropriate inoculum using a MIC-2000 inoculator (Dynatech Corp.) resulting in a final inoculum of approximately 1×10^4 cells/well or 1×10^5 cells/ml. The trays were incubated at 37° C. for 18-20 hours and the minimal inhibitory concentration (MIC), defined as the lowest concentration of compound to inhibit visible bacterial growth, was recorded.
(§5) After the MIC values were recorded, the contents in the microtiter trays were thoroughly mixed on a Bellco Mini-orbital Shaker (Bellco Glass Co.) for 3 min. at a setting of 8. A portion (0.0015 ml) from each well was then transferred via an MIC-2000 inoculator to plates containing MHA or BHI agar+10% NHS. The plates were incubated at 37° C. for 18-20 hrs. The minimal bactericidal concentration (MBC), defined as the lowest concentration of compound that prevented the formation of a recognizable colony on the agar surface, was recorded.

[2] = system: all 39 bacterial test strains; experiment: In vitro antibacterial activity; assay type: cell-based
Procedure: as §2, §3, §4, §5

[3] = system: penicillin-sensitive and methicillin-resistant Staphylococcus aureus strains; experiment: Mouse protection tests, S. aureus infections; assay type: in vivo, ICR mice; Staphylococcus aureus; conditions: subcutaneous and oral routes, mice
Procedure: ICR mice, female, 18-20 grams each.
Solutions of Win 52,522 and Win 35,439 were prepared by dissolving the appropriate weight of drug in 0.3 to 0.4 ml of 1 N NaOH and then bringing the solutions to the desired volume with distilled water. Methicillin and vancomycin were dissolved directly in distilled water.
Mice were inoculated intraperitoneally with 0.5 ml of the bacterial test inoculum.
Deaths were recorded daily for seven days for all tests. Fifty percent protective dose values (PD50's) were calculated using probit analysis [SAS Users Guide: Statistics, 1982 Edition, SAS Institute, Inc., Cary, N.C.].

S. pyogenes = experiment: In vitro antibacterial activity; assay type: cell-based; conditions: 3 strains of S. pyogenes
Procedure: as §2, §3, §4, §5

S. faecalis = experiment: In vitro antibacterial activity; assay type: cell-based; conditions: all 4 strains of S. faecalis
Procedure: as §2, §3, §4, §5

S. pneumoniae = experiment: In vitro antibacterial activity; assay type: cell-based; conditions: one strain of S. pneumoniae
Procedure: as §2, §3, §4, §5

Row | SMILES | MBC (E. coli (8739)) [µg/mL] | MIC (E. coli (8739)) [µg/mL] | MBC (E. coli 198) [µg/mL] | MIC (E. coli 198) [µg/mL] | MBC (E. coli 2350) [µg/mL] | MIC (E. coli 2350) [µg/mL] | MBC (E. coli Vogel) [µg/mL] | MIC (E. coli Vogel) [µg/mL] | MBC (P. aeruginosa (15442)) [µg/mL] | MIC (P. aeruginosa (15442)) [µg/mL] | MBC (P. aeruginosa (27853)) [µg/mL] | MIC (P. aeruginosa (27853)) [µg/mL] | MBC (P. aeruginosa (7700)) [µg/mL] | MIC (P. aeruginosa (7700)) [µg/mL] | MBC (P. aeruginosa (9027)) [µg/mL] | MIC (P. aeruginosa (9027)) [µg/mL] | MBC (P. aeruginosa MGH-2) [µg/mL] | MIC (P. aeruginosa MGH-2) [µg/mL] | further results
1 | CCn1cc(C(=O)O)c(=O)c2cc(F)c(-c3cc(C)nc(C)c3)cc21 [Win 52,522, 1-ethyl-6-fluoro-1,4-dihydro-7-(2,6-dimethyl-4-pyridinyl)-4-oxo-3-quinolinecarboxylic acid] | 0.25 (≈ 0.735 µM) | 0.25 (≈ 0.735 µM) | 0.5 (≈ 1.47 µM) | 0.5 (≈ 1.47 µM) | 0.25 (≈ 0.735 µM) | 0.25 (≈ 0.735 µM) | 0.5 (≈ 1.47 µM) | 0.25 (≈ 0.735 µM) | 16 (≈ 47 µM) | 16 (≈ 47 µM) | 16 (≈ 47 µM) | 16 (≈ 47 µM) | 16 (≈ 47 µM) | 16 (≈ 47 µM) | 16 (≈ 47 µM) | 4 (≈ 11.8 µM) | 16 (≈ 47 µM) | 16 (≈ 47 µM) | times less potent than methicillin [1]: 2-8 times; MBC/MIC ([2]; all Gram-positive and Gram-negative test strains): ≤ 4; bactericidal / bacteriostatic ([2]; all test strains): bactericidal; in vivo efficacy (in words) [3]: more efficacious than Win 35,439; also recorded: very potent antibacterial agent
2 | CCn1cc(C(=O)O)c(=O)c2ccc(-c3cc(C)nc(C)c3)cc21 [Win 35,439, 1-ethyl-1,4-dihydro-7-(2,6-dimethyl-4-pyridinyl)-4-oxo-3-quinolinecarboxylic acid] | 0.5 (≈ 1.55 µM) | 0.5 (≈ 1.55 µM) | 2 (≈ 6.2 µM) | 2 (≈ 6.2 µM) | 0.5 (≈ 1.55 µM) | 0.5 (≈ 1.55 µM) | 2 (≈ 6.2 µM) | 2 (≈ 6.2 µM) | > 16 | > 16 | > 16 | 16 (≈ 49.6 µM) | > 16 | 16 (≈ 49.6 µM) | > 16 | 8 (≈ 24.8 µM) | 16 (≈ 49.6 µM) | 8 (≈ 24.8 µM) | bactericidal / bacteriostatic (S. pyogenes): bacteriostatic
3 | CN[C@H](CC(C)C)C(=O)N[C@H]1C(=O)N[C@@H](CC(N)=O)C(=O)N[C@H]2C(=O)N[C@H]3C(=O)N[C@H](C(=O)N[C@H](C(=O)O)c4cc(O)cc(O)c4-c4cc3ccc4O)[C@H](O)c3ccc(c(Cl)c3)Oc3cc2cc(c3O[C@@H]2O[C@H](CO)[C@@H](O)[C@H](O)[C@H]2O[C@H]2C[C@](C)(N)[C@H](O)[C@H](C)O2)Oc2ccc(cc2Cl)[C@H]1O [Vancomycin] | – | – | – | – | – | – | – | – | – | – | – | – | – | – | – | – | – | – | bactericidal / bacteriostatic (S. faecalis): bacteriostatic; bactericidal / bacteriostatic (S. pneumoniae): bacteriostatic
